The values that follow come from ChEMBL document CHEMBL1148941, “A new glucosyl feruloyl quinic acid as a potential marker for roots and rhizomes of goldenseal, Hydrastis canadensis” (2004).

In this assay the test system is Staphylococcus aureus. Nature of the assay: Antimicrobial activity against methicillin-resistant Staphylococcus aureus 1126 after 24 hrs. Type of assay: functional.

The compound `COc1cc(/C=C/C(=O)O[C@@H]2C[C@](O)(C(=O)O)C[C@@H](O)[C@H]2O)ccc1O[C@@H]1O[C@H](CO)[C@@H](O)[C@H](O)[C@H]1O` showed an MIC greater than 1000 µg/mL. To `COc1ccc2cc3[n+](cc2c1OC)CCc1cc2c(cc1-3)OCO2.[Cl-]` [BERBERINE CHLORIDE] belongs 60 µg/mL.

The term MIC denotes the smallest concentration in the dilution series that meets the test's criterion for growth inhibition. Read a low MIC as greater potency.
